Measurements taken from patent publication US6448392B1, “Lipid derivatives of antiviral nucleosides: liposomal incorporation and method of use” (Chimerix, Inc., priority 1985, dated 2002).
Several values for one entry are separate records, joined by “and”; a condition that tells them apart may be missing. Equal entries are not always repeated. Structures can show the parent of a compound that is named as a salt. Where two headings read alike, the source gives them in different places.

Key:
[1] = system: HIV (LAV-1); experiment: HIV plaque formation in HT4-6C cells (CD4+ HeLa cells) infected with LAV-1; assay type: cell-based; conditions: 0.8 uM in liposomes
Procedure: In this experiment the compound of Example 7 (1-O- stearoylglycero-rac-3-phospho-5′-(3′-deoxy, 3′-azido)thymidine) was incorporated into liposomes containing 10 mole percent of the liponucleotide as indicated in Example 8. This material was diluted with RPMI medium to the desired concentration and added to HT4-6C cells (CD4+ HeLa cells) obtained from Dr. Bruce Chesbro of the Rocky Mountain National Laboratories (Hamilton, Mont.) which had been infected with LAV-1 as noted earlier in this example. After a 3 day incubation at 37° C., the cells were washed with PBS, fixed and stained with crystal violet and the plaques were counted.
PalmitoylAZT was incorporated into liposomes as noted in Example 8 and incubated with LAV-1 infected HT4-6C cells as noted in Examples 10 and 11. 0.8 uM palmitoylAZT inhibited plaque formation by 25% (134 plaques versus 176 in the untreated control).

[2] = system: HIV (LAV-1 strain); assay type: cell-based; conditions: for EC50: CEM wild type
Procedure: 6.42 micromoles of dioleoylphosphatidylcholine, 3.85 micromoles of cholesterol, 1.28 micromoles of dioleoylphosphatidylglycerol and 1.28 micromoles of dimyristoylphosphatidyl-azidothymidine were mixed in a sterile 2.0 ml glass vial and the solvent was removed in vacuo in a rotary evaporator. In some experiments, dimyristoylphosphatidylazidothymidine was replaced with either dimyristoylphosphatidyldideoxythymidine, dimyristoylphosphatidyldideoxycytidine or azidothymidine diphosphate dimyristoylglycerol; control liposomes were prepared by omitting the antiviral liponucleotide. The dried film was placed under high vacuum overnight at room temperature to remove traces of solvent. The lipid film was hydrated at 30° C. with 0.3 ml of sterile 10 mM sodium acetate buffer (pH 5.0) containing isotonic dextrose and the ampule was sealed. The mixture was vortexed intermittently for 10 minutes followed by sonication using a Heat Systems Ultrasonics sonicator with a cup horn generator (431B) at output control setting #9 for 90 to 120 minutes at which time the sample is clarified. This sonicated preparation was diluted with sterile RPMI buffer and added to the tissue culture wells at the concentration indicated.
(§1) The human T lymphoblastoid cell line, CCRG-CEM (hereafter referred to as CEM), was grown in RPMI 1640 medium containing 100 U/ml penicillin G, 100 ug/ml streptomycin, 2 mM glutamine and 10% fetal bovine serum (Hyclone Laboratories, Logan, Utah). Cells were infected with the LAV-1 strain (L. Montagnier, Paris, France) at a multiplicity of infection of one tissue culture 50% infectious dose (TCID50)/cell for 60 minutes at 37° C. in medium containing […]. CEM cells were infected in suspension at 6×10^4 cells/ml, washed three times by centrifugation and resuspension and then distributed in 96-well plates at 6×10^4 cells/well before addition of medium containing the liposomal antiretroviral liponucleotide drugs.
(§2) Antiviral activity was assayed after 3 days by the inhibition of the production of HIV p24 (gag) antigen in the cell free culture medium of the infected cells exposed to different concentrations of drug; p24 antigen was measured by ELISA (Abbott Laboratories, Chicago, Ill.) according to the manufacturer's instructions. The data are the average of two determinations and are expressed as percentage of a control incubated in the absence of drugs.

[3] = system: HSV-1; experiment: Herpes simplex virus plaque reduction assay, HSV-1 in Wi-38 cells; assay type: cell-based, Herpes simplex virus type 1
Procedure: Wi-38 cells were obtained from American Type Culture Collection (Rockville, Md. 20852) and grown in Dulbecco's minimum essential medium (DMEM) with 10% fetal calf serum (FCS). The cells were grown in 250 cm square bottles until reaching confluence.
Herpes simplex virus (HSV) type 1 (HSV-1) and type 2 (HSV-2) were obtained from the American Type Culture Collection. Both virus stocks were prepared in Wi-38 cells; extensive cytopathic effects (CPD) were observed when the stock virus was harvested by a single freezing and thawing and the cell debris was clarified by low speed centrifugation (2000 rpm). Supernatant fluids containing the virus were aliquoted into small vials and stored at −80° C. Both HSV-1 and HSV-2 stocks were titered in Wi-38 cells before use in the experiments.
The plaque reduction assay was used to measure the antiviral effect of phosphatidylacyclovir or free ACV. Wi-38 cells were trypsinized with 0.25% trypsin for 5 min. The cells were harvested and centrifuged to remove residual trypsin and the cell pellet was resuspended in DMEM with 10% FCS. The Wi-38 cells were plated in a 96 well plate ([…] cells/well) for one hour. The infected cells were then treated with phosphatidylacyclovir or ACV. The antiviral agents were prepared in stock solutions which were then diluted two-fold with 2% FBS in DMEM containing 0.5% methylcellulose. 100 μl of each diluted antiviral agent was added into each well of HSV infected cells.
The control and drug-treated cell cultures were incubated in a 37° C. incubator with 5% carbon dioxide for 24 hours. […] The dye was rinsed off with tap water and the plate was dried and plaques were counted. The antiviral effect of ACV or phosphatidylacyclovir was determined by measurement of plaque reduction as shown in the example below.

[4] = system: HIV in CEM (wild type) cells; experiment: Experiment I276: antiviral protection of CEM cells by preincubation, p24 in supernates; assay type: cell-based; conditions: 3 day preincubation; 24 and 48 hours in normal media after removal of drug
Procedure: The cells were then washed twice with PBS, and fresh RPMI media added. Each group of cells was then divided into three batches. One batch was immediately infected with HIV, as noted above; after washing away unattached HIV, the sample was allowed to incubate in media alone for 3 days. Two other batches were allowed to incubate in media alone for either 24 or 48 hours to allow any intracellular antiviral agent present to become depleted. Then they were infected with HIV, the cells washed free of virus, and fresh RPMI media added. After 3 days of further incubation, the supernates of all batches were tested for the presence of p24 protein.
CEM cells were subjected to HIV infection without preincubation; drug was added following HIV infection as indicated, and the cells were incubated for 3 days.
After a further incubation for 3 days, p24 was measured.

[5] = system: HIV in CEM tk- cells; experiment: Inhibition of HIV p24 production in thymidine kinase deficient CEM tk- cells; assay type: cell-based; conditions: Experiment H637-1b, AZT 0.2 to 100 uM
Procedure: as §1, §2
In this experiment, CEM cells were replaced with mutant cells (provided by Dr. Dennis Carson, Scripps Clinic, San Diego, Calif.) which lack the thymidine kinase enzyme (CEM tk−).

[6] = Experiment H533-1, liposomes containing 10 mole percent liponucleotide, p24 after 3 days, read-out: amount of drug required to reduce virus production by 50% (E.D. 50)

## CCCCCCCCCCCCCCCC(=O)OC[C@H]1O[C@@H](n2cc(C)c(=O)[nH]c2=O)C[C@@H]1N=[N+]=[N-] [PalmitoylAZT, 5′-palmitoyl(3′-deoxy-3′-azido)thymidine]
[1]; 176 in the untreated control
  plaques: 134
[1]; LAV-1 infected HT4-6C cells
  inhibition of plaque formation: 25%

## CCCCCCCCCCCCCC(=O)OCC(COP(=O)(O)OCC1CCC(n2ccc(N)nc2=O)O1)OC(=O)CCCCCCCCCCCCC (stereo not drawn) [LN3, 1,2-dimyristoylglycerophospho-5′-(3′-dideoxy)cytidine]
[2]; Experiment H805-1, liposomes, p24, read-out: ED50 (the source's name)
  EC50: 1100 nM

## Nc1nc2c(ncn2COCCO)c(=O)[nH]1 [Acyclovir, Acycloguanosine, reference compound]
[3]; Acyclovir 0.155 uM
  % no Drug: 73%
  plaques (determinations 1 and 2): 18 and 22
  plaques, mean: 20
[3]; Acyclovir 0.31 uM
  % no Drug: 65%
  plaques (determinations 1 and 2): 17 and 19
  plaques, mean: 20
[3]; Acyclovir 0.625 uM
  % no Drug: 26%
  plaques (determinations 1 and 2): 8 and 6
  plaques, mean: 7
[3]; Acyclovir 1.25 uM
  % no Drug: 13%
  plaques (determinations 1 and 2): 4 and 3
  plaques, mean: 3.5
[3]; Acyclovir 2.5 uM
  % no Drug: 0%
  plaques (determinations 1 and 2): 0
  plaques, mean: 0
[3]; Acyclovir 5 uM
  % no Drug: 0%
  plaques (determinations 1 and 2): 0
  plaques, mean: 0
[3]; Acyclovir 10 uM
  % no Drug: 0%
  plaques (determinations 1 and 2): 0
  plaques, mean: 0
[3]; Human alphaherpesvirus 1, HSV-1 infected Wi-38 cells, plaque reduction, read-out: concentration which produces 50% inhibition
  IC50: 400 nM

## CCCCCCCCCCCCCC(=O)OCC(COP(=O)(O)OP(=O)(O)OCC1OC(n2cc(C)c(=O)[nH]c2=O)CC1N=[N+]=[N-])OC(=O)CCCCCCCCCCCCC (stereo not drawn) [LN4, azidothymidine diphosphate dimylristoylglycerol]
[2]; [6]
  EC50: 8000 nM

## CCCCCCCCCCCCCC(=O)OC[C@H](COP(=O)(O)OC[C@H]1O[C@@H](n2cc(C)c(=O)[nH]c2=O)C[C@@H]1N=[N+]=[N-])OC(=O)CCCCCCCCCCCCC [LN1, 1,2-Dimyristoylglycerophospho-5′-(3′-azido-3′-deoxy)thymidine, Monosodium Salt]
[4]
  protection from HIV after removal of the drug: complete protection from HIV replication
[5]
  effect on p24 production: capable of reducing p24 production
[2]; [6]
  EC50: 2000 nM
[2]; Experiment H747-1a, concentrations ranging from 2 to 170 uM
  effectiveness in reducing p24, phosphatidylAZT liposomes versus free AZT: more effective than the free AZT
